Legend:
Assay in all cases: Broth dilution method for determining MIC
Details in all cases: pH adjusted to about 7, blend as ascorbic acid:ADBAC/DDAC
S. aureus = assay type: cell-based, Staphylococcus aureus
Description: (§1) The synergistic activities of different components in a composition (control, conventional comparative, or of the present technology) is determined by the method described by Kull et al. in […], Vol. 9, pages 538-541 (1961), which uses a synergy index to indicates whether synergy exists. A synergy index less than one (<1) indicates synergy; a synergy index of one (1) indicates additivity; a synergy index greater than one (>1) indicates antagonism.
(§2) When applied to Example 1 below, the synergy index of L-ascorbic acid and ADBAC/DDAC can be determined by the following equation:
(§3) Synergy Index=Qa/QA+Qb/QB, […]
(§4) The Minimum Inhibitory Concentration (MIC) of a chemical against a certain bacterium is determined according to the broth dilution method described in National Committee for Clinical Laboratory Standards entitled, “Methods for Dilution Antimicrobial Susceptibility Test for Bacteria that Grow Aerobically” document M7-A2, 2nd ed., 10:8, 1990. […]
(§5) In this example, standard MIC values of ascorbic acid, ADBAC/DDAC, and a 1:1 blend of ascorbic acid and ADBAC/DDAC were determined against E coli, S. aureus, and P. aeruginosa according to the broth dilution method introduced above. […] The synergy index of the 1:1 blend of ascorbic acid and ADBAC/DDAC against each of the biocidal targets was then calculated according to the method as described above.

P. aeruginosa = assay type: cell-based, Pseudomonas aeruginosa
Description: as §1, §2, §3, §4, §5

E coli = assay type: cell-based, Escherichia coli
Description: as §1, §2, §3, §4, §5

Measured: MIC

O=C1O[C@H]([C@@H](O)CO)C(O)=C1O [L-Ascorbic Acid]
>10,000 ppm, active: all assays above

From patent publication US20090176887A1, “Biocidal Compositions and Methods” (priority 2006, published 2009)
